This is an account of results in patent US11834450B2, “Compounds having ((3-nitrophenyl)sulfonyl)acetamide as BCL-2 inhibitors” (Eil Therapeutics, Inc., priority 2021, dated 2023).

The test system of one data set is RS4-11 cells. Put plainly: Cell viability assay RS4-11 (CellTiter-Glo). Particulars: Homo sapiens, read-out: RS4-11 (CC50 code). The format is cell-based. On the procedure:
(§1) Assay Condition: Used culture medium for HEK293-DMEM (PanEco, Cat #C420), for the rest of the cell lines—culture medium RPMI-1640 (PanEco, Cat #C363).
(§2) Assay Procedure: Compounds were prepared as 200× stocks with serial dilution in 100% DMSO with a final concentration of 1×. Dispersed 40 μl in 384-well plates at a concentration of 2000 cells per well for HEK293 and at a concentration of 4000 cells per well for the rest of the cell lines using a robotic station Biomek (Beckman). Before adding compounds, the cells were incubated at 37° C. (HEK293 were incubated for a day before adding compounds).
(§3) A dilution plate was prepared by pouring 78 μl of the appropriate culture medium using a robotic station Biomek (Beckman). Sequentially, using a robotic station, 2 μl of substances were taken and added to 78 μl of culture medium (dilution of compounds 40×). Took from there 10 μl and added to the plates to the cells (dilution of compounds 5×). The plates were incubated for 3 days at a temperature 37° C. After 3 days, 10 μl of CellTiter-Glo (Promega) was added to the cells and the luminescence was measured.

For a further data set, the system named is MOLT-4 cells. Put plainly: Cell viability assay MOLT-4 (CellTiter-Glo). The format is cell-based. Particulars: Homo sapiens, read-out: MOLT-4 (CC50 code). How it is done: as §1, §2, §3
On the technique in general: ATP-based viability assays read luminescence as a measure of living cells.

Data set [1] is described as follows: Cell viability assay HEK293 (CellTiter-Glo). Format: cell-based. The conditions noted are these: human, HEK293 cells, read-out: HEK293 (CC50 code). On the procedure:
as §1, §2, §3

For the next data set, the target named is T1, BCL-2 (Homo sapiens, UniProt P10415).
T1 construct: purchased BPS Bioscience #50222
The data set is described as follows: BCL-2 TR-FRET Assay (primary PPI inhibition). Format: binding. Particulars: 60 min incubation; read-out: BCL2 (IC50 code, BCL-2 TR-FRET).

A further data set addresses T2, BCL-XL (Homo sapiens, UniProt Q07817).
T2 construct: purchased BPS Bioscience #50223
The data set is described as follows: BCL-XL TR-FRET Assay (primary PPI inhibition). Format: binding. Particulars: 60 min incubation; read-out: BCLxL (IC50 code, BCL-XL TR-FRET). On the procedure:
BCL-XL TR-FRET Assay (BPS Bioscience, #50223) Assay Condition: The following assay concentrations and times were used: 10.5 ng BCL-XL, 5 ul of 1:100 anti-His Tb-labeled donor, 5 ul of 1:100 Dye-labeled acceptor, 5 ul of 1:80 BCL-XL Peptide Ligand, and 2 ul of test compound, with 60 min incubation time. The results of the assay were read using a Clariostar (BMG Labtech) plate reader with the following parameters: TR FRET, 340 ex/620 and 665 em; 60 μsec Delay; and 500 μsec integration.
(In general: TR-FRET usually uses a lanthanide donor and a delayed reading to cut background.)

Where [2] appears, read: 72 h, RS4-11 cells, 3 days, CellTiter-Glo.
Setting [3] is: 72 h, MOLT-4 cells, 3 days, CellTiter-Glo.

Where two headings read alike, the source gives them in different places.

T1 sequence (P10415 whole entry): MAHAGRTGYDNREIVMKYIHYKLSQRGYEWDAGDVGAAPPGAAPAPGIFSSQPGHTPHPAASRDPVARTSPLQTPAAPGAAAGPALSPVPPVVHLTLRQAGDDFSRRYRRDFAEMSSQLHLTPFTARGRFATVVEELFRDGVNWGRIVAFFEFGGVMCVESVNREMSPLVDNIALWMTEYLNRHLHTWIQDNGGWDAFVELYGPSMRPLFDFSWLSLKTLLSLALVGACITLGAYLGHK
T2 sequence (Q07817 whole entry): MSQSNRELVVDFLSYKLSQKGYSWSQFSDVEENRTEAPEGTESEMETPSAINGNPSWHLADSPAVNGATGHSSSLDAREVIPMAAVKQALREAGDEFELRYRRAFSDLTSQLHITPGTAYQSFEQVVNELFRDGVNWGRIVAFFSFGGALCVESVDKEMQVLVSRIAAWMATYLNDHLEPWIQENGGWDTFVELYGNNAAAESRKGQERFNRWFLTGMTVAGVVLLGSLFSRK

In the case of `O=C(NS(=O)(=O)c1ccc(NCC2CCOCC2)c([N+](=O)[O-])c1)c1ccc(N2CCN(C[C@@H]3CC(F)(F)CN3c3ccc(Cl)cc3)CC2)cc1Oc1cnc2[nH]ccc2c1` [Compound 81, 4-[4-[[(2S)-1-(4-chlorophenyl)-4,4-difluoro-pyrrolidin-2-yl]methyl]piperazin-1-yl]-N-[3-nitro-4-(tetrahydropyran-4-ylmethylamino)phenyl]sulfonyl-2-(1H-pyrrolo[2,3-b]pyridin-5-yloxy)benzamide], the values for the CC50 with RS4-11 cells (setting [2]) and in the data set with MOLT-4 cells (setting [3]) were over 0.2 µM and 2 to 10 µM, respectively. Further, the CC50 (in general, the concentration giving 50% cytotoxicity) at 3 days in data set [1] lay in the range of 10 to 25 µM.

Regarding `O=C1CC[C@H](CN2CCN(c3ccc(C(=O)NS(=O)(=O)c4ccc(NCC5CCOCC5)c([N+](=O)[O-])c4)c(Oc4cnc5[nH]ccc5c4)c3)CC2)[C@@H](c2ccc(Cl)cc2)N1` [Compound 70, 4-[4-[[(2S,3R)-2-(4-chlorophenyl)-6-oxo-3-piperidyl]methyl]piperazin-1-yl]-N-[3-nitro-4-(tetrahydropyran-4-ylmethylamino)phenyl]sulfonyl-2-(1H-pyrrolo[2,3-b]pyridin-5-yloxy)benzamide], the half-maximal cytotoxic concentration (CC50) with RS4-11 cells (setting [2]) is over 0.2 µM; in the data set with MOLT-4 cells (setting [3]), over 10 µM. Further, the figures for the IC50 on BCL-2 and at BCL-XL were over 0.05 µM and over 4 µM, respectively. Also, the half-maximal cytotoxic concentration (CC50) at 3 days in data set [1] lay in the range of 10 to 25 µM.

On to `O=C(NS(=O)(=O)c1ccc(NCCCN2CCOCC2)c([N+](=O)[O-])c1)c1ccc(N2CCC(CN3CCCCC3c3ccc(Cl)cc3)CC2)cc1Oc1cnc2[nH]ccc2c1` (centres unmarked) [Compound 73, 4-[4-[[2-(4-chlorophenyl)-1-piperidyl]methyl]-1-piperidyl]-N [4-(3-morpholinopropylamino)-3-nitro-phenyl]sulfonyl-2-(1H-pyrrolo[2,3-b]pyridin-5-yloxy)benzamide], for which the half-maximal cytotoxic concentration (CC50) was over 0.2 µM in the data set with RS4-11 cells (setting [2]) and 2 to 10 µM with MOLT-4 cells (setting [3]). In addition, the IC50 (commonly the concentration needed to halve the response being measured) lay within 0.01 to 0.05 µM on BCL-2 and 2 to 4 µM at BCL-XL. Moreover, the CC50 at 3 days in data set [1] lay within 10 to 25 µM.

Take `O=C(NS(=O)(=O)c1ccc(NCC2CCOCC2)c([N+](=O)[O-])c1)c1ccc(N2CCN(C[C@H]3Cc4ccccc4CN3C(=O)c3cccs3)CC2)cc1Oc1cnc2[nH]ccc2c1` [Compound 34, N-[3-nitro-4-(tetrahydropyran-4-ylmethylamino)phenyl]sulfonyl-2-(1H-pyrrolo[2,3-b]pyridin-5-yloxy)-4-[4-[[(3R)-2-(thiophene-2-carbonyl)-3,4-dihydro-1H-isoquinolin-3-yl]methyl]piperazin-1-yl]benzamide]: the IC50 at BCL-2 lay within 0.01 to 0.05 µM; at BCL-XL, 2 to 4 µM.

Take `CC1=CC[C@@H](CN2CCN(c3ccc(C(=O)NS(=O)(=O)c4ccc(NCC5CCOCC5)c([N+](=O)[O-])c4)c(Oc4cnc5[nH]ccc5c4)c3)CC2)[C@@H](c2ccc(Cl)cc2)C1` [Compound 71, 4-[4-[[(1R,6S)-6-(4-chlorophenyl)-4-methyl-cyclohex-3-en-1-yl]methyl]piperazin-1-yl]-N-[3-nitro-4-(tetrahydropyran-4-ylmethylamino)phenyl]sulfonyl-2-(1H-pyrrolo[2,3-b]pyridin-5-yloxy)benzamide]: the IC50 is 0.01 to 0.05 µM at BCL-2 and over 4 µM at BCL-XL.

As to `O=C(NS(=O)(=O)c1ccc(NCC2CCOCC2)c([N+](=O)[O-])c1)c1ccc(N2CCC(CN3CC4(CCCC4)C3c3ccccc3)CC2)cc1Oc1cnc2[nH]ccc2c1` (centres unmarked) [Compound 27, N-[3-nitro-4-(tetrahydropyran-4-ylmethylamino)phenyl]sulfonyl-4-[4-[(3-phenyl-2-azaspiro[3.4]octan-2-yl)methyl]-1-piperidyl]-2-(1H-pyrrolo[2,3-b]pyridin-5-yloxy)benzamide], the CC50 in the data set on RS4-11 cells (RS4-11, 72 h) was over 0.2 µM; with MOLT-4 cells (MOLT-4, 72 h), 2 to 10 µM. Moreover, the IC50 at BCL-2 is over 0.05 µM; at BCL-XL it was 2 to 4 µM. Also, the 50% cytotoxic concentration (CC50) at 3 days in data set [1] was over 25 µM.

Take `O=C(NS(=O)(=O)c1ccc(NCC2CCOCC2)c([N+](=O)[O-])c1)c1ccc(N2CCN(C(c3ccc(F)cc3)c3ccc(F)cc3)CC2)cc1Oc1ccc2[nH]ccc2c1` [Compound 16, 4-[4-[bis(4-fluorophenyl)methyl]piperazin-1-yl]-2-(1H-indol-5-yloxy)-N-[3-nitro-4-(tetrahydropyran-4-ylmethylamino)phenyl]sulfonyl-benzamide]: the CC50 was over 0.2 µM in the data set with RS4-11 cells (setting [2]) and over 10 µM in the data set on MOLT-4 cells (setting [3]). For the same compound, the 50% inhibitory concentration (IC50) at BCL-2 is over 0.05 µM; on BCL-XL, over 4 µM. Besides, in data set [1], the cytotoxic concentration (CC50) at 3 days is over 25 µM.

In the case of `CCCC(c1ccc(Br)cc1)N1CCN(c2ccc(C(=O)NS(=O)(=O)c3ccc(NCC4CCOCC4)c([N+](=O)[O-])c3)c(Oc3ccc4[nH]ccc4c3)c2)CC1` (centres unmarked) [Compound 15, 4-[4-[1-(4-bromophenyl)butyl]piperazin-1-yl]-2-(1H-indol-5-yloxy)-N-[3-nitro-4-(tetrahydropyran-4-ylmethylamino)phenyl]sulfonyl-benzamide], the figures for the IC50 on BCL-2 and on BCL-XL were over 0.05 µM and over 4 µM, respectively.

For the compound `O=C(NS(=O)(=O)c1ccc(NCC2CCOCC2)c([N+](=O)[O-])c1)c1ccc(N2CCN(C(c3ccccc3)c3ccccc3)CC2)cc1Oc1cnc2[nH]ccc2c1` [Compound 17, 4-(4-benzhydrylpiperazin-1-yl)-N-[3-nitro-4-(tetrahydropyran-4-ylmethylamino)phenyl]sulfonyl-2-(1H-pyrrolo[2,3-b]pyridin-5-yloxy)benzamide], the CC50 is over 0.2 µM in the data set with RS4-11 cells (setting [2]) and over 10 µM in the data set with MOLT-4 cells (setting [3]). The results for the 50% inhibitory concentration (IC50) at BCL-2 and at BCL-XL were over 0.05 µM and over 4 µM, respectively. In addition, the CC50 at 3 days in data set [1] was over 25 µM.

For `O=C(NS(=O)(=O)c1ccc(NCC2CCOCC2)c([N+](=O)[O-])c1)c1ccc(N2CCC(CN3C(=O)C4(CCCC4)C3c3ccc(Cl)cc3)CC2)cc1Oc1ccc2[nH]ccc2c1` (centres unmarked) [Compound 10, 4-[4-[[1-(4-chlorophenyl)-3-oxo-2-azaspiro[3.4]octan-2-yl]methyl]-1-piperidyl]-2-(1H-indol-5-yloxy)-N-[3-nitro-4-(tetrahydropyran-4-ylmethylamino)phenyl]sulfonyl-benzamide], the 50% cytotoxic concentration (CC50) in the data set with RS4-11 cells (RS4-11, 72 h) was over 0.2 µM; with MOLT-4 cells (MOLT-4, 72 h) it was over 10 µM. For the same compound, the half-maximal inhibitory concentration (IC50) on BCL-2 was over 0.05 µM. In addition, the half-maximal cytotoxic concentration (CC50) at 3 days in data set [1] is at most 10 µM.

For the compound `O=C(NS(=O)(=O)c1ccc(NCC2CCOCC2)c([N+](=O)[O-])c1)c1ccc(N2CCN(C(c3ccccc3)c3ccc(Cl)cc3)CC2)cc1Oc1ccc2[nH]ccc2c1` (centres unmarked) [Compound 14, 4-[4-[(4-chlorophenyl)-phenyl-methyl]piperazin-1-yl]-2-(1H-indol-5-yloxy)-N-[3-nitro-4-(tetrahydropyran-4-ylmethylamino)phenyl]sulfonyl-benzamide], at BCL-2, the IC50 is over 0.05 µM.

For the compound `CC1=CC[C@@H](c2ccc(Cl)cc2)[C@H](CN2CCN(c3ccc(C(=O)NS(=O)(=O)c4ccc(NCC5CCOCC5)c([N+](=O)[O-])c4)c(Oc4cnc5[nH]ccc5c4)c3)CC2)C1` [Compound 60, 4-[4-[[(1R,6R)-6-(4-chlorophenyl)-3-methyl-cyclohex-3-en-1-yl]methyl]piperazin-1-yl]-N-[3-nitro-4-(tetrahydropyran-4-ylmethylamino)phenyl]sulfonyl-2-(1H-pyrrolo[2,3-b]pyridin-5-yloxy)benzamide], the IC50 is over 0.05 µM at BCL-2 and over 4 µM at BCL-XL.
